Entries after “also recorded” stand apart in the source; their conditions may differ.
Key:
rats = test: Modified Irwin test (FOB, SAC, FU); type: in vivo, rat; settings: 0.01-30 mg/kg
Text: In this study the compounds of the present invention were screened for basal behavioural, autonomic, neurological and toxicological side-effects in rats. For this purpose, a functional observational battery (FOB) in form of an Irwin test (Irwin S., Psychopharmacologia, 1968, 13, 222; 1968; Warburton D. M. Psychopharmacology, 2002, 163, 4; Haggerty G. C. et al., J. Amer. Coll. Toxicol., 1991, 10, 677; Mattsson J. L. et al., J. Amer. Coll. Toxicol., 1996, 15, 239, all references are herein incorporated by reference) modified and validated by the Test Facility was used. Each test compound was tested at eight doses (0.01, 0.03, 0.1, 0.3, 1.0, 3.0, 10.0 and 30.0 mg/kg). All compounds were dissolved in DMSO (administration volume 1 ml/kg). Each dose group included three animals. Two vehicle groups (DMSO and Labrasol) served as negative controls.
At the first day of each test week all test compound solutions necessary for the test (1-2 weeks) were prepared by means of one dilution series starting with the highest concentration. All test compounds dissolved in DMSO were administered in a volume of 1 ml/kg. DMSO-containing solutions were stored at −18° C. All solutions were melted for administration at room temperature 16-20 hours before the start of the test.
Study design and time schedule:
4-7 days: Acclimatization and handling of the animals 1 day: Test day with • (a) Four repeated functional observational battery (FOB): 30 min, 60 min, 120 min, 180 min following compound administration • (b) Short animal check (SAC): 300 min following compound administration 1 day: Follow-up observation (FU): • 24 h (1440 min) following compound administration.
In all experimental parts, an experienced ethologist used lists of predefined methods and behavioural parameters in order to rate the behaviour of the animal (see table 7 for functional observational battery (FOB), table 8 for short animal check (SAC) and table 9 for follow-up observation (FU).
A statistical evaluation of the data was performed that enabled an assessment of the compound's effects on each parameter. Dose-response relationships are not necessarily linear. It was not clear a priori whether the response would be dose-dependent or whether low, medium or high dose effects would occur. Therefore, the data were correlated against a set of different numeric models of theoretical dose-response curves. For this kind of evaluation the measurement times were not differentiated. An average value over all measurement times was calculated for each animal. This value was taken as one measurement within the observation vector. The complete set of parameters measured for the animal (each one averaged over time) formed the observation vector. Each dose was then represented by three observation vectors (3 animals per dose). The effects of all doses were compared with vehicle (DMSO) as the observation vectors for the zero dose. A common pool of 24 animals for the zero dose was used for all compounds to be tested. For each test compound the obtained values for each parameter together with values from the pool of vehicle-treated (DMSO) animals were then correlated with theoretical dose-response models (analysis profiles). Since 8 doses were be used, there were 8 models, each assuming that the maximum compound effect occurred at one of these doses. Effects of other doses were assumed to be attenuated with a linearly descending slope of the theoretical curve. Correlation values and statistical significance of regression were then calculated. An error probability of p<0.05 (two-tailed testing) was taken as significance level. Non-significant regressions were neglected. In consequence, each parameter was assessed as not affected or affected by the compound in a dose-response relationship according to type 1 (low dose effect) up to type 8 (high dose effect). Dose response is maximal for the effect with the greatest absolute correlation coefficient. […]

[1] = tested on: Reserpine induced catalepsy; test: Acute Reserpine induced catalepsy test; type: in vivo, rat; settings: for effect on catalepsy time in acute Reserpine induced catalepsy model: i.p. in DMSO, 0.1-10 mg/kg; for maximum catalepsy values after Reserpine treatment / median catalepsy values after Reserpine treatment: vs only Reserpine-treated animals
Description: Animals were administered with Reserpine or CGS-21680 according to methods known to the skilled person in the art. These models and procedures are e.g. described by Ferré S. et al., Neurosci. Let., 1991, 130, 162; Ferré S. et al., Neuroscience, 1992, 51, 501; Kafka S. H. et al., Eur. J. Pharmacol., 1996, 295, 147; Rimondini R. et al., Neuropsychopharmacology, 1997, 17, 82 and are herein incorporated by reference. In the acute CGS-21680 induced catalepsy model (CGS model) the test compounds (TC, compounds according to the present invention) and CGS-21680 (i.p. 2 mg/kg) were administered 60 minutes before the start of the catalepsy bar measurement and behavioural testing described below (see also FIG. 1). In the acute Reserpine induced catalepsy model (RES model Resperine (subcutaneously, 3 mg/kg) was injected 24 h prior to the test compound application. Catalepsy bar measurement took place 60 minutes after test compound application (see FIG. 1). Test compounds were administered i.p. in DMSO in following doses (mg/kg): 0.1, 0.3, 1, 3, 10.
Dimethylsulfoxide (DMSO) was used as vehicle for the test compounds and Reserpine. Reserpine was dissolved in DMSO in a concentration of 3 mg/ml. A 10% (w/v) Cyclodextrin solution was used as vehicle for CGS-21680. CGS 21680 was dissolved in 10% (w/v) Cyclodextrine in a concentration of 2 mg/ml.
Apomorphine was used as a reference compound in the Reserpine induced catalepsy model. Apomorphine injection solution was diluted with purified water to a concentration of 0.3 mg/ml. The solution was administered subcutaneously (s.c.) in a volume of 1 ml/kg (0.3 mg/kg) 20 minutes before the begin of testing after Reserpine pre-treatment (25 hours prior to testing).
The catalepsy bar after Reserpine administration was measured (CAT) as follows: The rat was placed with its forepaws on a log of wood. […] The animal was tested for three trials and the time for each trial was noted. The following parameters were calculated: maximum time to descend (s) and median time to descend (s). […]
All statistical tests were performed two tailed with a value of p<0.05 considered as significant.
To assess the effects of CGS-21680 and Reserpine pre-treatment compared to vehicle treated controls statistical comparisons between the test groups were performed using a U test statistic.
To assess the effects of test compounds on CGS-21680 and Reserpine pre-treated animals correlation analyses including animals from test groups and the respective test compound-treated groups were performed.
Additionally, parametric and non-parametric comparisons for the median catalepsy measure were performed to assess the reliability of the method. In case of parametric testing a GLM analyses was performed including animals from a control group (only vehicle treated animals) and the respective test compound-treated groups with dose as a categorical factor. In case of a significant result, a Dunnett's post hoc test was performed between the according test compound groups and a control group as reference group. In case of non-parametric testing a Kruskal-Wallis H-test was performed including animals from a control group and the respective test compound groups. In case of a significant result single U-test comparisons were performed between a control group and the groups treated with different doses of the test compound.

[2] = tested on: haloperidol induced model of Parkinson's Disease; test: Haloperidol induced model of Parkinson's Disease; settings: in vivo

Row | Compound | activity in the Irwin Test (hyperlocomotion) (rats) | effect on catalepsy time in acute Reserpine induced catalepsy model [1] | maximum catalepsy values after Reserpine treatment [1] | median catalepsy values after Reserpine treatment [1] | effect in haloperidol induced model of Parkinson's Disease [2]
1 | C#CCn1c(=O)c2c(nc(C#Cc3ccc(OC)c(OC)c3)n2C)n(CCCO)c1=O [test compound 2, 3-(3-hydroxypropyl)-8-(3,4-dimethoxyphenylethynyl)-7-methyl-1-prop-2-ynyl-3,7-dihydropurine-2,6-dione] | potent hyperlocomotion | reduced catalepsy time; also recorded: significant reduction of catalepsy time | significantly decreased | significantly decreased | 
2 | C#CCn1c(=O)c2c(nc(C#Cc3ccc(OC)c(OC)c3)n2C)n(CC)c1=O [test compound 1, 3-ethyl-8-(3,4-dimethoxyphenylethynyl)-7-methyl-1-prop-2-ynyl-3,7-dihydropurine-2,6-dione] | potent hyperlocomotion | significantly reduced catalepsy time; also recorded: significant reduction of catalepsy time | only weakly reduced | significantly reduced | effective; also recorded: significant effects
